The assay has as its target T1, His6GalUSpn (UDP-glucose pyrophosphorylase, UDPG:PP, GalU) (Streptococcus pneumoniae, UniProt O86882).
T1 construct: complete galU gene amplified from plasmid pMMG2 into pET28a (NheI/BamHI; pETgalU), His6 tag before the protein, tag cut not mentioned; E. coli BL21(DE3), IMAC
In words: malachite green Pi assay coupled to inorganic pyrophosphatase. The settings on record: 30 min preincubation at 37 °C with 7.5 mM compound; 7.5 mM UTP, 7.5 mM Glc-1P, 5 mM MgCl2, MOPS pH 8.0, 37 °C. Format: biochemical.

T1 sequence (O86882 entry or part of it): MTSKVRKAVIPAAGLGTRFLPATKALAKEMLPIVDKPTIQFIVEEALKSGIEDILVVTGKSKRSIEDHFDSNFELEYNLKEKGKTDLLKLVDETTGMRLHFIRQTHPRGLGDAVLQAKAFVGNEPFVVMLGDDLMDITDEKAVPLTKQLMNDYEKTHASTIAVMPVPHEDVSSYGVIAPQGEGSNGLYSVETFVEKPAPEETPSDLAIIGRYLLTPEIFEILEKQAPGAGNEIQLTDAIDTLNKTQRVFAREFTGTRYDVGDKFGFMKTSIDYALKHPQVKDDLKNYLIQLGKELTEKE

In the case of `Nc1nc(NC2CC2)c2ncn([C@H]3C=C[C@@H](CO)C3)c2n1` [abacavir], the “% inhibition at 7.5 mM” value is on record as “inhibit S. pneumoniae UDP-glucose pyrophosphorylase, including compounds containing a purine base in their structure”.

Regarding `Cc1cn([C@H]2C=C[C@@H](CO)O2)c(=O)[nH]c1=O` [stavudine], the “% inhibition at 7.5 mM” value was “nucleoside analogs: abacavir, decitabine stavudine and zidovudine”.

In the case of `Cc1cn([C@H]2C[C@H](N=[N+]=[N-])[C@@H](CO)O2)c(=O)[nH]c1=O` [zidovudine], the “% inhibition at 7.5 mM” value is “nucleoside analogs: abacavir, decitabine stavudine and zidovudine”.

These data come from PMC6009895, “Screening assay for inhibitors of a recombinant Streptococcus pneumoniae UDP-glucose pyrophosphorylase” (Journal of Enzyme Inhibition and Medicinal Chemistry, 2017).
